Our source for the IC50 values is patent US5424426A, “Dithiolanylglycine-containing HIV protease inhibitors of the hydroxyethylene isostere type” (Bayer Aktiengesellschaft, priority 1992, dated 1995).

pIC50: −log10 of the molar value. Structures can show the parent of a compound that is named as a salt.

In one assay the target is T1, HIV protease (HIV-1) (Human immunodeficiency virus type 1 group M subtype B, UniProt P04585).
T1 construct: purified HIV protease was incubated with synthetic peptide
Kind of assay: HIV-specific protease enzyme test (RP-HPLC analysis of synthetic peptide cleavage). The conditions noted are these: purified HIV protease, synthetic Gag cleavage-site peptide. The assay is classed as biochemical. The protocol: The results of the examples listed below were determined by the HIV test system described in the following references [cf. Hansen, J., Billich, S., Schulze, T., Sukrow, S. and Molling, K. (1988), EMBO Journal, Vol. 7, No. 6, pp. 1785-1791]: purified HIV protease was incubated with synthetic peptide which imitates a cleavage site in the Gag precursor protein and represents an in vivo cleavage site of the HIV protease. The resulting cleavage products of the synthetic peptide were analysed by means of reverse phase high performance liquid chromatography (RP-HPLC). The IC50 values given relate to the substance concentration which causes a 50% strength inhibition of the protease activity under the above-mentioned test conditions.

Assay [1] concerns HIV. Kind of assay: HIV infection in cell culture, syncytia formation in PBLs. The conditions noted are these: HIV-infected normal human blood lymphocytes (PBLs); 50% suppression of virus-induced syncytia. In kind it is cell-based. The method, then:
(§1) The HIV test was carried out with slight modifications by the method of Pauwels et al. [cf. Journal of Virological Methods 20, (1988), 309-321].
Normal human blood lymphocytes (PBLs) were enriched on Ficoll-Hypaque and stimulated in RPMI 1640, 20% foetal calf serum containing phytohaemagglutinin (90 μg/ml) and interleukin-2 (40 U/ml). For infection with the infectious HIV, PBLs were pelleted and the cell pellet was then suspended in 1 ml of HIV virus adsorption solution and incubated for 1 hour at 37° C.
The virus adsorption solution was centrifuged and the infected cell pellet taken up in growth medium so that a concentration of 1×10^5 cells per ml was established. The cells infected in such a way were pipetted at 1×10^4 cells/well into the wells of 96-well microtitre plates.
The first vertical row of the microtitre plate contained only growth medium and cells which had not been infected, but otherwise had been treated exactly as described above (cell control). The second vertical row of the microtitre plate contained only HIV-infected cells (virus control) in growth medium. The other wells contained the compounds according to the invention in different concentrations, starting from the wells of the 3rd vertical row of the microtitre plate, from which the test substances were diluted 2^10 times in steps of two.
The test batches were incubated at 37° C. until in the untreated virus control the syncytia formation typical of HIV occurred (between day 3 and 6 after infection), which was then assessed by microscopy.
(§2) The IC50 values were determined as the concentrations of the […] at which 50% (about 10 syncytia) of the virus-induced syncytia were suppressed by the treatment with the compound according to the invention.

Assay [2] relates to HIV. The assay can be described thus: HIV infection in cell culture, H-9 cells. The assay is classed as cell-based. The conditions noted are these: HIV-infected H-9 cells. The protocol:
as §1, §2

With “1-{(2R,4S,5S)-5-[(2S)-3-(tert-Butylsulphonyl)-2-(1-naphthylmethyl)propanoyl]-(2R)-N-(tert-butoxycarbonyl)-2-amino-2-[2-(1,3-dithiolan-2-yl)ethanoyl]amino-6-cyclohexyl-4-hydroxy-2-(1-methyl)ethyl-hexanoyl}-S-isoleucinyl-2-pyridylamide [Example 8]”, the pIC50 (commonly the IC50 on a negative log10 scale, so that one unit is a factor of ten) at HIV protease (HIV-1) is 8.05 to 8.92; with HIV [1], 6.00.
For “1-{(2R,S,4S,5S) -5-[(2R)-N-(tert-Butoxycarbonyl)-2-amino-2-[2-(1,3-dithiolan-2-yl)]ethanoyl]amino-6-cyclohexyl-4-hydroxy-2-(1-methyl)ethyl-hexanoyl}-S-isoleucinyl2-pyridylamide [Example 1]”, in that order: 8.05 to 8.85 and < 6.00.
Turning to “1-}(2S,4S,5S)-5-[(2S)-3-(tert-Butylsulphonyl)-2-(1-naphthylmethyl)propanoyl]-(2R)-N-(tert-butoxycarbonyl)-2-amino-2-[2-(1,3-dithiolan-2-yl)]ethanoyl]amino-6-cyclohexyl-4-hydroxy-2-(1-methyl)ethyl-hexanoyl}-S-isoleucinyl-2-pyridylamide [Example 9]”, the pIC50 at HIV protease (HIV-1) was 8.05 to 9.00; in the assay on HIV [1], 7.40; with HIV [2] it was 7.96.
As to `CC[C@H](C)[C@H](NC(=O)C(C[C@H](O)[C@H](CC1CCCCC1)NC(=O)[C@@H](N)C1SCCS1)C(C)C)C(=O)Nc1ccccn1` (stereo partly drawn) [Example 2, 1-{(2R,S;4S,5S)-5-[(2R)-2-Amino-2-[2-(1,3-dithiolan-2-yl)]ethanoyl]-amino-6-cyclohexyl-4-hydroxy-2-(1-methyl)ethyl-hexanoyl}-S-isoleucinyl-2-pyridylamide dihydrochloride], the negative-log IC50 (pIC50) against HIV protease (HIV-1) is 8.05 to 8.89; in the assay with HIV [1], 5.00.
The matching figures for `CC[C@H](C)[C@H](NC(=O)[C@H](Cc1ccccc1)C[C@H](O)[C@H](CC1CCCCC1)NC(=O)[C@@H](NC(=O)OC(C)(C)C)C1SCCS1)C(=O)Nc1ccccn1` [Example 3, 1-{(2R,4S,5S)-5-[(2R)-N-(tert-Butoxycarbonyl)-2-amino-2-[2-(1,3-dithiolan-2-yl)]ethanoyl]amino-6-cyclohexyl-4-hydroxy-2-(phenyl)methyl-hexanoyl}-S-isoleucinyl-2-pyridylamide]: 7.10 to 7.89 and 6.00.
The matching figures for `CC[C@H](C)[C@H](NC(=O)[C@@H](Cc1ccccc1)C[C@H](O)[C@H](CC1CCCCC1)NC(=O)[C@@H](NC(=O)OC(C)(C)C)C1SCCS1)C(=O)Nc1ccccn1` [Example 4, 1-{(2S,4S,5S)-5-[(2R)-N-(tert-Butoxycarbonyl)-2-amino-2-[2-(1,3-dithiolan-2-yl)]ethanoyl]amino-6-cyclohexyl-4-hydroxy-2-(phenyl)methyl-hexanoyl}-S-isoleucinyl2-pyridylamide]: 7.10 to 7.80 and 6.00.
Consider `C=CCC(C[C@H](O)[C@H](CC1CCCCC1)NC(=O)[C@@H](NC(=O)OC(C)(C)C)C1SCCS1)C(=O)N[C@H](C(=O)Nc1ccccn1)[C@@H](C)CC` (stereo partly drawn) [Example 5, 1-{(2R,S,4S,5S)-5-[(2R)-N-(tert-Butoxycarbonyl)-2-amino-2-[2-(1,3-dithiolan-2-yl)]ethanoyl]amino-6-cyclohexyl-4-hydroxy-2-(2-propenyl)-hexanoyl}-S-isoleucinyl-2-pyridylamide], for which the pIC50 against HIV protease (HIV-1) is 8.05 to 8.85; in the assay on HIV [1] it was 6.40.
